Patent publication US9630949B2, “Oxoazetidine derivatives, process for the preparation thereof and use thereof in human medicine and in cosmetics” (GALDERMA RESEARCH & DEVELOPMENT, priority 2008, dated 2017)

Key:
[1] = target: hMC1R (Homo sapiens (Human), UniProt Q01726); assay: Transactivation test: melanocortin receptors (pCRE-Luc luciferase reporter), hMC1R; assay type: cell-based; details: HEK293 transfected with pCRE-Luc and hMC1R; products tested alone (agonist), 6 h incubation; % activity vs NDP-MSH 10 nM; IA: inactive
hMC1R, sequence (Q01726 whole entry): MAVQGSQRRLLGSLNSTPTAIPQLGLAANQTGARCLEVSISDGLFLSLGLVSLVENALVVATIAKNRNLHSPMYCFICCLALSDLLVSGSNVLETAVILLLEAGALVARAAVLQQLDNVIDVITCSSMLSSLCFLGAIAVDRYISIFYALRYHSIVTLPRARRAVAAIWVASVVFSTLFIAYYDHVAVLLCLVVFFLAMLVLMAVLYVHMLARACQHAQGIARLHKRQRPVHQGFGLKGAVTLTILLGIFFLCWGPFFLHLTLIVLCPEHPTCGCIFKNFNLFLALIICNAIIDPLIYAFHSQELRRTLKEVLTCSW
Procedure: (§1) Transactivation Test: Melanocortin Receptors
(§2) HEK293 lines are transfected with the pCRE-Luc and hMC1R, hMC3R, hMC4R or hMC5R vectors. The cells are cultured at 37° C., 5% CO2, in DMEM medium supplemented with 10% of foetal calf serum.
(§3) In the presence of an activator (agonist), the melanocortin receptor will activate the cAMP pathway which, via the CRE-Luc vector, will result in the synthesis of luciferase. After the addition of a lysis buffer containing a luminescent substrate for luciferase, it will be possible to measure the luminescence proportional to the degree of activation or of inhibition of the receptor.
(§4) The products are solubilized at 10 mM in DMSO. They are tested in the form of dose-response at a final DMSO concentration of 0.1%. The range comprising 10 points and one zero begins at 10 μM with 4-fold dilutions. For testing agonists, the products are tested alone. For determining the behaviour of antagonists, the products of interest are tested in the presence of 1 nM NDP-MSH (reference agonist). The cells are seeded at a rate of 5000 cells per well (384 well plate) in serum-free DMEM medium, and incubated overnight at 37° C., 5% CO2.
(§5) The products and the reference ligand (NDP-MSH) are added the following day, and the plates are again incubated for 6 h at 37° C., 5% CO2. After the addition of lysis buffer containing luciferin, the plates are read on a Top-Count instrument. The results are standardized as % activity using the 100% (cells+NDP-MSH at 10 nM) and 0% (cells alone) controls. An EC50 is calculated for each product using the XLFit software. The results are given in nM.

[2] = target: hMC4R (Homo sapiens (Human), UniProt P32245); assay: Transactivation test: melanocortin receptors (pCRE-Luc luciferase reporter), hMC4R; assay type: cell-based; details: HEK293 transfected with pCRE-Luc and hMC4R; products tested alone (agonist), 6 h incubation; % activity vs NDP-MSH 10 nM; IA: inactive
hMC4R, sequence (P32245 whole entry): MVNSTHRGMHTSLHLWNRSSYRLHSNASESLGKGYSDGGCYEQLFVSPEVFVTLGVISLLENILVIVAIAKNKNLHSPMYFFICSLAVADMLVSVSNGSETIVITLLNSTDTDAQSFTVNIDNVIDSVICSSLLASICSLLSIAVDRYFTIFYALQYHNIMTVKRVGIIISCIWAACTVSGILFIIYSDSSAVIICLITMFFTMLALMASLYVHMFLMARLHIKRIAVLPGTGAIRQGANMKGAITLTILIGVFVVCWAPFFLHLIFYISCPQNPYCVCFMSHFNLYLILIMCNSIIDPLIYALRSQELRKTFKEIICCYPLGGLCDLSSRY
Procedure: as §1, §2, §3, §4, §5

| Structure (SMILES) | EC50 [1] [nM] | EC50 [2] [nM] |
| --- | --- | --- |
| CCCCOC1(c2ccccc2C)CN(C(=O)[C@@H](Cc2ccc(OC)cc2)NC(=O)CCC2N=NC(C)=N2)C1 (stereo partly drawn) [Compound 40, N-[(R)-2-(3-butoxy-3-o-tolylazetidin-1-yl)-1-(4-methoxybenzyl)-2-oxoethyl]-3-(5-methyl-3H-[1,2,4]triazol-3-yl)propionamide] | 8000 | 500 |
| CCCCOC1(c2ccccc2C)CN(C(=O)[C@@H](Cc2ccc(OC)cc2)NC(=O)CCc2[nH]cnc2C)C1 [Compound 41, N-[(R)-2-(3-butoxy-3-o-tolylazetidin-1-yl)-1-(4-methoxybenzyl)-2-oxoethyl]-3-(5-methyl-3H-imidazol-4-yl)propionamide] | 120 | 1000 |
| CCCCCC1(c2ccccc2)CN(C(=O)[C@@H](Cc2ccc(Cl)cc2)NC(=O)CCc2c[nH]cn2)C1 [Compound 45, N-[(R)-1-(4-chlorobenzyl)-2-oxo-2-(3-pentyl-3-phenylazetidin-1-yl)ethyl]-3-(1H-imidazol-4-yl)propionamide] | 2000 | 2000 |
| CCCCCC1(c2ccccc2)CN(C(=O)[C@@H](Cc2ccc(F)cc2)NC(=O)CCc2c[nH]cn2)C1 [Compound 46, N-[(R)-1-(4-fluorobenzyl)-2-oxo-2-(3-pentyl-3-phenylazetidin-1-yl)ethyl]-3-(1H-imidazol-4-yl)propionamide] | 1000 | 4000 |
| CCCCCC1(c2ccccc2)CN(C(=O)[C@@H](Cc2ccccc2)NC(=O)CCc2c[nH]cn2)C1 [Compound 47, N-[(R)-1-benzyl-2-oxo-2-(3-pentyl-3-phenylazetidin-1-yl)ethyl]-3-(1H-imidazol-4-yl)propionamide] | 500 | 4000 |
| CCCCOC1(c2ccccc2C)CN(C(=O)[C@@H](Cc2ccc(OC)cc2)NC(=O)C=Cc2c[nH]cn2)C1 [Compound 48, N-[(R)-2-(3-butoxy-3-o-tolylazetidin-1-yl)-1-(4-methoxybenzyl)-2-oxoethyl]-3-(1H-imidazol-4-yl)acrylamide] | 4000 | 500 |
| CCCCCC1(c2ccc(F)cc2F)CN(C(=O)[C@@H](Cc2ccc(OC)cc2)NC(=O)CCc2c[nH]cn2)C1 [Compound 49, N-[(R)-2-[3-(2,4-difluorophenyl)-3-pentylazetidin-1-yl]-1-(4-methoxybenzyl)-2-oxoethyl]-3-(1H-imidazol-4-yl)propionamide] | 15 | 2000 |
| CCCCCC1(c2ccccc2)CN(C(=O)[C@@H](Cc2cccc(C(F)(F)F)c2)NC(=O)CCc2c[nH]cn2)C1 [Compound 50, N-[(R)-2-oxo-2-(3-pentyl-3-phenylazetidin-1-yl)-1-(3-trifluoromethylbenzyl)ethyl]-3-(1H-imidazol-4-yl)propionamide] | 1000 | 500 |
| CCCCCC1(c2ccccc2)CN(C(=O)[C@@H](Cc2ccc(Cl)c(Cl)c2)NC(=O)CCc2c[nH]cn2)C1 [Compound 52, N-[(R)-1-(3,4-dichlorobenzyl)-2-oxo-2-(3-pentyl-3-phenylazetidin-1-yl)ethyl]-3-(1H-imidazol-4-yl)propionamide] | 2000 | 250 |
| CCCCCC1(c2ccccc2)CN(C(=O)[C@@H](Cc2ccc(F)c(F)c2)NC(=O)CCc2c[nH]cn2)C1 [Compound 53, N-[(R)-1-(3,4-difluorobenzyl)-2-oxo-2-(3-pentyl-3-phenylazetidin-1-yl)ethyl]-3-(1H-imidazol-4-yl)propionamide] | 1000 | 4000 |
| CCCCCC1(c2cccc(F)c2)CN(C(=O)[C@@H](Cc2ccc(OC)cc2)NC(=O)CCc2c[nH]cn2)C1 [Compound 55, N-[(R)-2-[3-(3-fluorophenyl)-3-pentylazetidin-1-yl]-1-(4-methoxybenzyl)-2-oxoethyl]-3-(1H-imidazol-4-yl)propionamide] | 120 | 1000 |
| CCCCCC1(c2ccccc2)CN(C(=O)[C@@H](Cc2cccc(F)c2)NC(=O)CCc2c[nH]cn2)C1 [Compound 56, N-[(R)-1-(3-fluorobenzyl)-2-oxo-2-(3-pentyl-3-phenylazetidin-1-yl)ethyl]-3-(1H-imidazol-4-yl)propionamide] | 4000 | 8000 |
| CCCCCC1(c2ccccc2)CN(C(=O)[C@@H](Cc2ccccc2F)NC(=O)CCc2c[nH]cn2)C1 [Compound 57, N-[(R)-1-(2-fluorobenzyl)-2-oxo-2-(3-pentyl-3-phenylazetidin-1-yl)ethyl]-3-(1H-imidazol-4-yl)propionamide] | 1000 | 4000 |
| CCCCCC1(c2ccccc2)CN(C(=O)[C@@H](Cc2ccc(Cl)cc2Cl)NC(=O)CCc2c[nH]cn2)C1 [Compound 58, N-[(R)-1-(2,4-dichlorobenzyl)-2-oxo-2-(3-pentyl-3-phenylazetidin-1-yl)ethyl]-3-(1H-imidazol-4-yl)propionamide] | 2000 | 500 |
| CCCCCC1(c2cc(F)ccc2F)CN(C(=O)[C@@H](Cc2ccc(OC)cc2)NC(=O)CCc2c[nH]cn2)C1 [Compound 60, N-[(R)-2-[3-(2,5-difluorophenyl)-3-pentylazetidin-1-yl]-1-(4-methoxybenzyl)-2-oxoethyl]-3-(1H-imidazol-4-yl)propionamide] | 120 | 100 |
| CCCCCC1(c2c(F)cccc2F)CN(C(=O)[C@@H](Cc2ccc(OC)cc2)NC(=O)CCc2c[nH]cn2)C1 [Compound 61, N-[(R)-2-[3-(2,6-difluorophenyl)-3-pentylazetidin-1-yl]-1-(4-methoxybenzyl)-2-oxoethyl]-3-(1H-imidazol-4-yl)propionamide] | 120 | 100 |
| CCCCOC1(c2ccccc2C)CN(C(=O)C(Cc2ccc(OC)cc2)NC(=O)CC(CC)c2c[nH]cn2)C1 (centres unmarked) [Compound 63, N-[2-(3-butoxy-3-o-tolylazetidin-1-yl)-1-(4-methoxybenzyl)-2-oxoethyl]-3-(1H-imidazol-4-yl)pentyramide] | 500 | 500 |
| CCCCCC1(c2ccccc2)CN(C(=O)[C@@H](Cc2ccc(OC)cc2)NC(=O)CCc2cncn2C)C1 [Compound 64, N-[(R)-1-(4-methoxybenzyl)-2-oxo-2-(3-pentyl-3-phenylazetidin-1-yl)ethyl]-3-(3-methyl-3H-imidazol-4-yl)propionamide] | 2000 | 500 |
| CCCCCC1(C2CCCCC2)CN(C(=O)[C@@H](Cc2ccc(OC)cc2)NC(=O)CCc2c[nH]cn2)C1 [Compound 66, N-[(R)-2-(3-cyclohexyl-3-pentylazetidin-1-yl)-1-(4-methoxybenzyl)-2-oxoethyl]-3-(1H-imidazol-4-yl)propionamide] | 250 | 250 |
| CCCCOC1(c2ccccc2C)CN(C(=O)[C@@H](Cc2ccc(OC)cc2)NC(=O)CCc2cncn2C)C1 [Compound 67, N-[(R)-2-(3-butoxy-3-o-tolylazetidin-1-yl)-1-(4-methoxybenzyl)-2-oxoethyl]-3-(3-methyl-3H-imidazol-4-yl)propionamide] | 500 | 500 |
| CCCCOC1(c2ccccc2F)CN(C(=O)[C@@H](Cc2ccc(OC)cc2)NC(=O)CCc2c[nH]cn2)C1 [Compound 68, N-[(R)-2-[3-Butoxy-3-(2-fluorophenyl)azetidin-1-yl]-1-(4-methoxybenzyl)-2-oxoethyl]-3-(1H-imidazol-4-yl)propionamide] | 60 | 2000 |
| CCCCOC1(c2ccccc2C)CN(C(=O)[C@@H](Cc2ccc(OC)cc2)NC(=O)CCc2cn(C)cn2)C1 [Compound 69, N-[(R)-2-(3-Butoxy-3-o-tolylazetidin-1-yl)-1-(4-methoxybenzyl)-2-oxoethyl]-3-(1-methyl-1H-imidazol-4-yl)propionamide] | 1000 | 8000 |
| CCCCOC1(c2ccccc2C)CN(C(=O)[C@@H](Cc2ccc(OC)cc2)NC(=O)[C@@H](O)Cc2c[nH]cn2)C1 [Compound 71, (S)-N-[(R)-2-(3-Butoxy-3-o-tolylazetidin-1-yl)-1-(4-methoxybenzyl)-2-oxoethyl]-2-hydroxy-3-(1H-imidazol-4-yl)propionamide] | 60 | 4000 |
| CCCCOC1(c2ccccc2C)CN(C(=O)C(NC(=O)CCc2c[nH]cn2)C(O)c2ccc(OC)cc2)C1 (centres unmarked) [Compound 73, N-[1-(3-Butoxy-3-o-tolylazetidine-1-carbonyl)-2-hydroxy-2-(4-methoxyphenyl)ethyl]-3-(1H-imidazol-4-yl)propionamide] | 500 | 8000 |
| CCCCOC1(c2ccccc2C)CN(C(=O)[C@@H](Cc2ccc(OC)cc2)NC(=O)CC(O)c2c[nH]cn2)C1 (stereo partly drawn) [Compound 74, N-[(R)-2-(3-Butoxy-3-o-tolylazetidin-1-yl)-1-(4-methoxybenzyl)-2-oxoethyl]-3-hydroxy-3-(1H-imidazol-4-yl)propionamide] | 250 | 8000 |
